Measured values: BindingDB's records for doi:10.7270/Q2KH0KWR (Burnham Center For Chemical Genomics, 2012)

target: T1, Tyrosine-protein phosphatase non-receptor type 5 (Homo sapiens, UniProt P54829); experiment: PTPN5 inhibition measured colorimetrically – biochemical, colorimetric absorbance, orthogonal assay for STEP inhibitor project, dose response (AID 624207); settings: not given
T1 sequence (P54829 whole entry): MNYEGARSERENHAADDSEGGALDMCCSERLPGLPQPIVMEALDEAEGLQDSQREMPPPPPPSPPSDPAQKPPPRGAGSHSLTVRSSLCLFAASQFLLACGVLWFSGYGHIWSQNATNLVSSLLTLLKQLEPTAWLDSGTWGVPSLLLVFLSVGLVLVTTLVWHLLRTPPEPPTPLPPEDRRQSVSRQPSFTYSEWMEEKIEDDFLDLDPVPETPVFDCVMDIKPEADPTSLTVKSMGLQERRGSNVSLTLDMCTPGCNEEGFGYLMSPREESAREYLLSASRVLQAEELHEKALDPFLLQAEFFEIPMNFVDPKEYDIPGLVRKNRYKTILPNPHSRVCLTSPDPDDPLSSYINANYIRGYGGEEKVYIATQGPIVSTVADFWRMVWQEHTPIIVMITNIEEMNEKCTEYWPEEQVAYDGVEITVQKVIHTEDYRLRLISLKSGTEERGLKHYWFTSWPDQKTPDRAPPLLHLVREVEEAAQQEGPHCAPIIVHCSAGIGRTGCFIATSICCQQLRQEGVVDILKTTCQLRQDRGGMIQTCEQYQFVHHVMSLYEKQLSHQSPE

Row | Structure (SMILES) | IC50 [µM]
1 | Cn1cc(CC(=O)Nc2cccc(C#N)c2)c2ccccc21 [N-(3-cyanophenyl)-2-(1-methyl-1H-indol-3-yl)acetamide] | > 80
2 | CCOc1ccc(CCNC(=O)CS(=O)(=O)Cc2nc(-c3ccc(OC)cc3)oc2C)cc1 [N-[2-(4-ethoxyphenyl)ethyl]-2-[[2-(4-methoxyphenyl)-5-methyl-1,3-oxazol-4-yl]methylsulfonyl]ethanamide] | > 80
3 | COc1ccccc1NS(=O)(=O)c1cc(NC(=O)c2sccc2C)ccc1N1CCCC1 [N-[3-[(2-methoxyphenyl)sulfamoyl]-4-(1-pyrrolidinyl)phenyl]-3-methyl-2-thiophenecarboxamide] | 6.95
4 | CCCCN(CC)Cc1ccc(CN=C(S)Nc2c(C)cc(C)cc2C)o1 [N-[(5-{[butyl(ethyl)amino]methyl}-2-furyl)methyl]-N'-mesitylthiourea] | > 80
5 | O=C(N/N=C/c1ccc(Br)s1)c1cccc([N+](=O)[O-])c1 [N-[(E)-(5-bromanylthiophen-2-yl)methylideneamino]-3-nitro-benzamide] | 14.9
6 | O=C(COc1ccc([CH+][N-]NC(=O)c2ccncc2)cc1)Nc1ccc([N+](=O)[O-])cc1 [N-[(E)-[4-[2-[(4-nitrophenyl)amino]-2-oxidanylidene-ethoxy]phenyl]methylideneamino]pyridine-4-carboxamide] | > 80
7 | O=C(N/N=C/c1ccoc1)c1cc(O)cc(O)c1 [N-[(E)-furan-3-ylmethylideneamino]-3,5-dihydroxybenzamide] | > 80
8 | Cc1cc(C(=O)NN=Cc2ccc(-c3ccc([N+](=O)[O-])cc3Cl)o2)[nH]n1 [N-[[5-(2-chloro-4-nitrophenyl)furan-2-yl]methylideneamino]-5-methyl-1H-pyrazole-3-carboxamide] | > 80
9 | O=S(=O)(Nc1ccccc1)c1cccc2nsnc12 [N-phenyl-2,1,3-benzothiadiazole-4-sulfonamide] | > 80
10 | COc1ccc(OC)c(-n2c(O)c3o[nH]c(-c4ccccc4Cl)c-3c2=O)c1 [SMR000046218] | > 80
11 | O=Cc1cn(-c2ccccc2)nc1-c1cc2cc(O)ccc2oc1=O [SMR000152596] | > 80
12 | CCN(c1ccccc1)S(=O)(=O)c1cc(C(=O)OC(C)C(=O)Nc2ccc3c(c2)OCCO3)ccc1C (centres undefined) [SMR000242949] | > 80
13 | COc1ccccc1Nc1ccc([N+](=O)[O-])cc1N [SMR000260154] | > 80
14 | O=C(NC1CCCCCC1)C(=S)NC1CCCCC1 [SMR000296231] | > 80
15 | N=C1S/C(=C\c2ccc(O)cc2)C(=O)N1c1ccc(F)cc1 [SMR000298434] | > 80
16 | O=C(COc1ccc([N+](=O)[O-])cc1)Nc1nnc(-c2cccnc2)s1 [SMR000385697] | > 80
17 | Cc1ccc(NC(=O)CN2C(=O)S/C(=C\c3ccc(OCC(=O)O)c(Br)c3)C2=O)cc1 [SMR000477386] | > 80
18 | Cc1ccc(NC(=O)CCn2c(=S)oc3ccccc32)cc1F [SMR000564947] | > 80
19 | CCOC(=O)CC(NS(=O)(=O)c1ccc2ncc(C(=O)O)c(O)c2c1)c1ccc(OCC)c(OC)c1 (centres undefined) [SMR000621519] | > 80
20 | O=C(NN=Cc1ccccc1O)NN=Cc1ccccc1O [SMR001556943] | 32.5
21 | CC(=NNC(=S)N1CC2CCC(CC2)C1)c1cccc(C)n1 [SMR001565418] | > 80
22 | CCN(c1ccccc1)S(=O)(=O)c1cc(C(=O)OCC(=O)c2c(N)n(C)c(=O)n(C)c2=O)ccc1C [[2-(4-amino-1,3-dimethyl-2,6-dioxopyrimidin-5-yl)-2-oxoethyl] 3-[ethyl(phenyl)sulfamoyl]-4-methylbenzoate] | > 80
23 | COc1ccc(CN=Nc2nc(O)c(CC(=O)O)s2)cc1OCc1ccc(Cl)cc1Cl [[2-({3-[(2,4-dichlorobenzyl)oxy]-4-methoxybenzylidene}hydrazono)-4-oxo-1,3-thiazolidin-5-yl]acetic acid] | 13.6
24 | Cc1ccccc1N1CCN(C(=S)c2ccc(-c3cccc([N+](=O)[O-])c3)o2)CC1 [[4-(2-methylphenyl)-1-piperazinyl]-[5-(3-nitrophenyl)-2-furanyl]methanethione] | > 80
25 | NS(=O)(=O)c1ccccc1 [sodium;phenylsulfonylazanide] | 73
26 | CC1=C(C(=O)OC(C)C)C(c2ccc(Cl)cc2)n2c(s/c(=C\c3ccc(OCC(=O)O)cc3)c2=O)=N1 (centres undefined) [{4-[(5-(4-chlorophenyl)-6-(isopropoxycarbonyl)-7-methyl-3-oxo-5H-[1,3]thiazolo[3,2-a]pyrimidin-2(3H)-ylidene)methyl]phenoxy}acetic acid] | 5.83

same assay, conditions: inactive by the depositor's call

Row | Structure (SMILES) | IC50 [µM]
27 | COc1cccc(-c2cc(C(=O)Nc3nc4ccccc4s3)c3ccccc3n2)c1 [N-(1,3-benzothiazol-2-yl)-2-(3-methoxyphenyl)-4-quinolinecarboxamide] | 78.3
28 | COc1ccc(NC(=S)N2CCC(N(C)CC3CCCO3)CC2)cc1Cl (centres undefined) [N-(3-chloranyl-4-methoxy-phenyl)-4-[methyl(oxolan-2-ylmethyl)amino]piperidine-1-carbothioamide] | 40.3
29 | CCCCC(=O)Nc1ccc(C(=O)NNC(=O)c2ccc(C)c(Br)c2)cc1 [N-(4-{[2-(3-bromo-4-methylbenzoyl)hydrazino]carbonyl}phenyl)pentanamide] | 53.8
30 | CN1CCN(C(S)=Nc2ccc(S(N)(=O)=O)cc2)CC1 [N-[4-(aminosulfonyl)phenyl]-4-methyl-1-piperazinecarbothioamide] | 41.5
31 | O=C(N/N=C/c1cccc(Br)c1)c1ccc(N2CCCC2=O)cc1 [N-[(E)-(3-bromophenyl)methylideneamino]-4-(2-oxidanylidenepyrrolidin-1-yl)benzamide] | 22.9
32 | O=C(COc1ccc(/C=N/NC(=O)c2ccccc2O)cc1)Nc1ccccc1 [N-[(E)-[4-(2-anilino-2-oxoethoxy)phenyl]methylideneamino]-2-hydroxybenzamide] | 23.6
33 | CCN1CCN(C(=S)c2ccc(Cl)c(Cl)c2)CC1 [SMR000143195] | 39.3
34 | O=C(O)CCC(/N=N/c1ccc(S(=O)(=O)N2CCCC2)cc1[N+](=O)[O-])c1cccs1 (centres undefined) [SMR000151450] | 32.8
35 | CCN1CCN(C(=S)c2ccc(Br)cc2)CC1 [SMR000198085] | 63.9
36 | N=C(NCc1ccc2c(c1)OCO2)NC(=O)c1ccccc1 [SMR000293067] | 77
37 | CCOC(=O)N1CCC(N(CCN(C)C)C(=S)Nc2ccc(Oc3ccccc3)cc2)CC1 [SMR000311544] | 27
38 | COc1cc(/C=N/NC(=O)c2ccccc2O)ccc1OCC(=O)Nc1ccccc1 [SMR000515267] | 44.7
39 | COC(=O)c1ccccc1CSc1nsc(/C=C/N(C)C)c1C#N [SMR000549393] | 33.5
40 | Cc1ccc(NC(=O)c2ccc3nc(N4CCOCC4)sc3c2)c(Cl)c1 [SMR000624920] | 22.4
41 | Cc1c(C)c2ccc(OCC(=O)Nc3ccc(S(N)(=O)=O)cc3)c(C)c2oc1=O [SMR000652408] | 36.1
42 | Cc1sc2nc(CSC(C)C(=O)Nc3ccc(Cl)cn3)nc(O)c2c1C (centres undefined) [SMR001268769] | 38.4
43 | CCOC(=O)N1CCC(N(CCN(C)C)C(=S)Nc2cc(Cl)ccc2C)CC1 [ethyl 4-[(5-chloranyl-2-methyl-phenyl)carbamothioyl-[2-(dimethylamino)ethyl]amino]piperidine-1-carboxylate] | 77.1
44 | CCOC(=O)c1c(NC(=O)OC)sc(C(=O)N(CC)CC)c1C [ethyl 5-(diethylcarbamoyl)-2-(methoxycarbonylamino)-4-methylthiophene-3-carboxylate] | 44.3
